Series [1] deals with cancer cell lines such as MCF-7, KB and A549. Also on record: method as in PMID 21629182. The conditions noted are these: cited from earlier work.
Another series deals with T1, porcine pancreas lipase (Sus scrofa, UniProt P00591).
T1 construct: from tissue; host or cells: porcine pancreas
T1 sequence (P00591 1-450): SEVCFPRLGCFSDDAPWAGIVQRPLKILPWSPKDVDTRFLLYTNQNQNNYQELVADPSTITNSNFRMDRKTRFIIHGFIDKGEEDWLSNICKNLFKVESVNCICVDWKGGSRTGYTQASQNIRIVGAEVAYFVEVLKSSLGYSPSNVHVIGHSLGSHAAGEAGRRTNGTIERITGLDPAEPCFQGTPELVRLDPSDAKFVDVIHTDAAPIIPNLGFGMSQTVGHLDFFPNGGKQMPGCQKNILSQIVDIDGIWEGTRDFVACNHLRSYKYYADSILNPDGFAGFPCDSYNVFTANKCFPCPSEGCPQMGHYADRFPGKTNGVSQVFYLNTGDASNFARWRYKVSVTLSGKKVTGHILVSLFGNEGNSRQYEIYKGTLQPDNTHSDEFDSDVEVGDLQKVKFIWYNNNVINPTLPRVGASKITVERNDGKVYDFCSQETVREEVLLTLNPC
In words: pancreatic lipase inhibition, 4-methylumbelliferyl oleate, HPLC fluorescence detection of 4-MU. The conditions noted are these: for IC50: porcine pancreas lipase, 4-methylumbelliferyl oleate substrate, read-out: IC Lipase. Type of series: biochemical. How it is done: For pancreatic lipase inhibitory enzymatic assays, a slightly modified method from that described in a previous paper was used. […] The test sample solution (50 µL) was added to 50 unit/mL of porcine pancreas lipase suspension (50 µL). […] The enzymatic reaction was carried out at 37 °C for 120 min and the reaction was terminated by the addition of citrate buffer (200 µL). After that, the intensity of fluorescent enzymatic product 4-MU was measured by HPLC with fluorescence detection. […] The inhibition percentage was calculated using Equation (2):Inhibition% = [Area (test sample) − Area (sample blank)/Area (control)] × 100(2)
Tetrahydrolipstatin was used as a positive control (Figure 5 and Figure 6).

Series [2] deals with rat intestinal α-glucosidase. In words: α-glucosidase inhibition, rat intestinal acetone powder, pNPG hydrolysis. The conditions noted are these: for IC50: pNPG substrate, read-out: IC α-Glucosidase; for α-glucosidase inhibitory activity (in words): rat intestinal α-glucosidase. Type of series: biochemical. The method, then:
The α-glucosidase activity was calculated by measuring the amount of p-nitrophenol hydrolyzed from pNPG by α-glucosidase. Tested enzyme was prepared using α-glucosidase included in commercial rat intestinal acetone powder (Sigma-Aldrich). […] Sonication was performed 20 times each for durations of 10 s. After centrifugation at 7000× g for 15 min at 4 °C, the supernatant was separated from the pellet. The supernatant was diluted two-fold with 0.1 M phosphate buffer at pH 6.9. The test sample was dissolved in DMSO and then diluted in the same volume of 0.1 M phosphate buffer. The test sample solution (10 µL) was added to a crude enzyme suspension (40 µL). The solution was preincubated at 37 °C for 10 min, then 2.5 mM of pNPG dissolved in 0.1 M phosphate buffer (50 µL) was added to the reaction mixture as the substrate. The enzymatic reaction was carried out at 37 °C for 30 min and the reaction was terminated by the addition of 0.1 M Na2CO3 aq. (900 µL). The absorbance at 405 nm was determined. […] The acarbose was used as a positive control (Figure 4).

For the next series, the system named is COX2. Also on record: method as in doi:10.1016/j.foodchem.2010.06.064. The conditions noted are these: cited from earlier work.
The test system of another series is human 5-lipoxygenase. The conditions noted are these: cited from earlier work.
The subject of a further series is Hep G2 cells. Also on record: method as in PMID 30034597. The conditions noted are these: cited from earlier work.
For the next series, the system named is α-glucosidase. Also on record: method as in PMID 18179176. The conditions noted are these: cited from earlier work.
[3] abbreviates: α-glucosidase from rat intestine acetone powder.

As for `C=C1CC[C@H]2C(C)(C)CCC[C@]2(C)[C@H]1CC=C(C=O)CC(=O)O` (stereo in doubt) [Compound 8, Zerumin A], the “cytotoxicity against cancer cell lines (in words)” value in series [1] is reported as “strong cytotoxicity”. Also, at porcine pancreas lipase, the IC50 is 73.4 µM.
`C[C@H]1O[C@H](O[C@H]2[C@H](O)[C@@H](O)[C@@H](O[C@H]3[C@H](O)[C@@H](O)C(O)O[C@@H]3CO)O[C@@H]2CO)[C@H](O)[C@@H](O)[C@@H]1N[C@H]1C=C(CO)[C@@H](O)[C@H](O)[C@H]1O` (stereo partly drawn) [Acarbose, acarbose, reference compound]: in series [2] (setting [3]), the “IC50 α-glucosidase” value is listed as 247 ppm and the IC50 stood at 380 µM.
As to `C=C1CCC2C(C)(C)CCC[C@]2(C)[C@H]1C/C=C(/C=O)CC=O` (stereo partly drawn) [Compound 1, (E)-Labda-8(17),12-diene-15,16-dial], in series [1], the “cytotoxicity against cancer cell lines (in words)” value is recorded as “strong cytotoxicity”. Also, the “inhibition of COX2 compared with COX1 (in words)” value in the series with COX2 is recorded as “greater inhibition of COX2 than COX1”. In the series on human 5-lipoxygenase, the “human 5-lipoxygenase inhibition (in words)” value is listed as “inhibited human 5-lipoxygenase”. In addition, in series [2], the “α-glucosidase inhibitory activity (in words)” value was “strongest rat intestinal α-glucosidase inhibitory activity”. Moreover, in series [2] (setting [3]), the IC50 was 8740 µM. For the same molecule, the “cytotoxicity in Hep G2 cells (in words)” value in the series on Hep G2 cells is reported as “without cytotoxicity”.
In the case of `C=C1CCC2C(C)(C)CCCC2(C)C1C=CC(C)=O` (stereo not drawn) [Compound 2], in series [1], the “cytotoxicity against cancer cell lines (in words)” value is “did not show cytotoxicity”. The values for the IC50 (on porcine pancreas lipase; in series [2] (setting [3])) were 14.8 µM and 17500 µM, respectively. Besides, the “α-glucosidase inhibitory activity (in words)” value in series [2] was “strong α-glucosidase inhibition”.
On to `C=C1CCC2C(C)(C)CCC[C@]2(C)[C@H]1C/C=C(/CO)CCO` (stereo partly drawn) [Compound 4, (E)-Labda-8(17),12-diene-15,16-diol], for which the results for the IC50 (on porcine pancreas lipase; in series [2] (setting [3])) were 258 µM and 11600 µM, respectively. The “α-glucosidase inhibitory activity (in words)” value in series [2] is recorded as “strong α-glucosidase inhibition”.
As for `C=C1CCC2C(C)(C)CCC[C@]2(C)[C@H]1C/C=C(\CCOC(C)=O)COC(C)=O` (stereo partly drawn) [Compound 5, 15,16-Diacetoxyl-(E)-labda-8(17),12-diene], the IC50 at porcine pancreas lipase was 111 µM.
Still for that read-out and setting: with `C=C1CCC2C(C)(C)CCC[C@]2(C)[C@H]1C/C=C(/CO)CCOC(C)=O` (stereo partly drawn) [Compound 6, 15-Acetoxy-(E)-labda-8(17),12-diene-16-ol] the figure was 102 µM.
For `C=C1CCC2C(C)(C)CCC[C@]2(C)[C@H]1C/C=C(\CCO)COC(C)=O` (stereo partly drawn) [Compound 7, 16-Acetoxy-(E)-labda-8(17),12-diene-15-ol], on porcine pancreas lipase, the IC50 came to 222 µM.
The same measure, in the same setting: to `C=C1CCC2C(C)(C)CCC[C@]2(C)[C@H]1C/C=C(\CC(=O)O)C(=O)O` (stereo partly drawn) [Compound 9, (E)-Labda-8(17),12-diene-15,16-dicarboxylic acid] belongs 76.8 µM.
In the case of `C=C1CCC2C(C)(C)CCC[C@]2(C)[C@H]1C/C=C(\CC(=O)OC)C(=O)OC` (stereo partly drawn) [Compound 10, (E)-Labda-8(17),12-diene-15,16-dimethylester], the IC50 at porcine pancreas lipase is 119 µM.
Turning to `CCCCCCCCCCC[C@@H](C[C@@H]1OC(=O)[C@H]1CCCCCC)OC(=O)[C@H](CC(C)C)NC=O` [Tetrahydrolipstatin, reference compound], the Lipase inhibition on porcine pancreas lipase (at 5.0 Nm, positive control) was 94% (5.0 Nm).
As to `CC1(C)CCC[C@]2(C)[C@@H](C=O)C(C=O)=CC[C@@H]12` [polygodial, reference compound], in the series on human 5-lipoxygenase, the “human 5-lipoxygenase inhibition (in words)” value is on record as “inhibited human 5-lipoxygenase”. The “α-glucosidase inhibition (in words)” value in the series with α-glucosidase is recorded as “did not show α-glucosidase inhibition”.
Albicanal [Compound 3]: at porcine pancreas lipase, the IC50 worked out at 666 µM. Moreover, the “α-glucosidase inhibitory activity (in words)” value in series [2] is listed as “did not show any such activity”.

Source of the values: paper PMC6891541, “α-Glucosidase and Pancreatic Lipase Inhibitory Activities of Diterpenes from Indian Mango Ginger (Curcuma amada Roxb.) and Its Derivatives” (Molecules, 2019).
